Laboratory results reported in ChEMBL document CHEMBL1123897, “Nucleosides. 146. 1-Methyl-5-(2-deoxy-2-fluoro-beta-D-arabinofuranosyl)uracil, the C-nucleoside isostere of the potent antiviral agent 1-(2-deoxy-2-fluoro-beta-D-arabinofuranosyl)thymine (FMAU). Studies directed toward the synthesis of 2'-deoxy-2'-substituted arabino nucleosides. 6” (1987).

Experiments:
Assay type in all cases: functional
Details in all cases: read-out: ED50 (the source's name)
[1] = organism: Homo sapiens; test: In vitro inhibitory activity against Herpes simplex virus-1(HSV-1) was determined in human foreskin fibroblasts
[2] = organism: Homo sapiens; test: In vitro inhibitory activity against Varicella zoster virus(VZV) was determined in human foreskin fibroblasts
[3] = organism: Homo sapiens; test: In vitro inhibitory activity against Herpes simplex […] was determined in human foreskin fibroblasts

| SMILES | EC50 [1] | EC50 [2] | EC50 [3] |
| --- | --- | --- | --- |
| Cc1cn([C@@H]2O[C@H](CO)[C@@H](O)[C@@H]2F)c(=O)[nH]c1=O [5-METHYL-2'-FLUOROARAURACIL] | 0.06 µM | 0.02 µM | 0.13 µM |
| Cn1cc([C@@H]2O[C@H](CO)[C@@H](O)[C@@H]2F)c(=O)[nH]c1=O | 8.5 µM | 6.4 µM | 23 µM |
